Laboratory results reported in PMC2632775 (Nuclear medicine and biology, 2008).
Like-named read-outs stand apart in the source and are kept apart here.

What was measured:
[1] = rats, avg ± SD, cited from earlier work
[2] = target: T1, VMAT2 binding sites in the pancreas (Rattus norvegicus, UniProt Q01827); conditions: rats, 60 min after tracer injection, ± SD, cited from earlier work
[3] = target: T1, VMAT2 binding sites in the pancreas; experiment: Blocking studies of pancreatic uptake in rats; assay type: in vivo; conditions: for Pancreas uptake, Pretreatment / Blood uptake, Pretreatment: n=5, ± SD
[4] = rats, iv
[5] = target: VMAT2 binding sites of beta cells in the pancreas (Rattus norvegicus, UniProt Q01827); conditions: rats, PET, post iv injection
VMAT2 = VMAT2 (Rattus norvegicus, UniProt Q01827); experiment: In vitro autoradiography using rat brain sections; assay type: binding; conditions: preliminary, data not shown
[6] = pretreatment of (+)2 3.5 mg/kg iv 5 min prior
[7] = 60 min after tracer injection, no pretreatment, n=4, ± SD
[8] = 60 min after tracer injection, pretreatment of (+)2 3.5 mg/kg iv 5 min prior
[9] = 30 min after tracer injection, no pretreatment, n=4, ± SD
[10] = 30 min after tracer injection, pretreatment of (+)DTBZ 3.3 mg/kg iv 5 min prior

T1 sequence (Q01827 whole entry): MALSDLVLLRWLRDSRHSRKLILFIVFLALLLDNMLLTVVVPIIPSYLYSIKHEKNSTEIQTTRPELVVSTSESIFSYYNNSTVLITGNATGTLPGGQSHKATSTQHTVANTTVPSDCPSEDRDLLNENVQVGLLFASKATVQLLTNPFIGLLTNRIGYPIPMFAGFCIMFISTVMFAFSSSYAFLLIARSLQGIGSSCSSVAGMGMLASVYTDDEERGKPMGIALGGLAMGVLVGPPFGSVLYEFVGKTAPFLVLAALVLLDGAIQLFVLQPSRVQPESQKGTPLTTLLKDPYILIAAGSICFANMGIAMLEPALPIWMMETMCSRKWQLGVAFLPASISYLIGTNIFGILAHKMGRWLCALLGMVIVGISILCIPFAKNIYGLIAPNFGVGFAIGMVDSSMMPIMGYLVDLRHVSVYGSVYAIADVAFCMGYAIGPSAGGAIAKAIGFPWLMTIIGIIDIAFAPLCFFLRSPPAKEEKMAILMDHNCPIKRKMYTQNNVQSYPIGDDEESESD
Sequence of VMAT2 binding sites of beta cells in the pancreas (Q01827 whole entry): as above
Sequence of VMAT2 (Q01827 whole entry): as above

In the case of `COc1cc2c(cc1OCCC[18F])CCN1CC(CC(C)C)C(O)CC21` (stereo not drawn) [[^18F](+)2, [^18F](−)-2-Hydroyxl-3-isobutyl-9-(3-fluoropropoxy)-10-methoxy-2,3,4,6,7, 11b-hexahydro-1H-pyrido[2,1-a]isoquinoline], the Blood uptake ([1]; 2 min) is given as 0.26 ± 0.03 %ID/g, the Brain uptake ([1]; 2 min) is given as 0.71 ± 0.05 %ID/g and the Heart uptake ([1]; 2 min) is given as 0.71 ± 0.07 %ID/g. The Kidney uptake ([1]; 2 min) was 2.10 ± 0.17 %ID/g, the Liver uptake ([1]; 2 min) was 3.53 ± 0.56 %ID/g and the Lung uptake ([1]; 2 min) was 0.94 ± 0.04 %ID/g. The Muscle uptake ([1]; 2 min) was 0.14 ± 0.03 %ID/g, the Pancreas uptake ([1]; 2 min) was 2.51 ± 0.22 %ID/g and the Skin uptake ([1]; 2 min) was 0.23 ± 0.05 %ID/g. For the same compound, the Spleen uptake ([1]; 2 min) was 1.46 ± 0.15 %ID/g, the Blood uptake ([1]; 30 min) was 0.23 ± 0.06 %ID/g and the Brain uptake ([1]; 30 min) was 0.62 ± 0.08 %ID/g. For the same compound, the Heart uptake ([1]; 30 min) was 0.41 ± 0.03 %ID/g, the Kidney uptake ([1]; 30 min) was 1.06 ± 0.06 %ID/g and the Liver uptake ([1]; 30 min) was 2.82 ± 0.24 %ID/g. The Lung uptake ([1]; 30 min) was 0.69 ± 0.03 %ID/g, the Muscle uptake ([1]; 30 min) was 0.17 ± 0.02 %ID/g and the Pancreas uptake ([1]; 30 min) was 5.50 ± 0.97 %ID/g. The Skin uptake ([1]; 30 min) was 0.28 ± 0.01 %ID/g, the Spleen uptake ([1]; 30 min) was 1.03 ± 0.18 %ID/g and the Blood uptake ([1]; 60 min) was 0.18 ± 0.02 %ID/g. For the same compound, the Brain uptake ([1]; 60 min) was 0.42 ± 0.04 %ID/g, the Heart uptake ([1]; 60 min) was 0.30 ± 0.10 %ID/g and the Kidney uptake ([1]; 60 min) was 0.84 ± 0.09 %ID/g. For the same compound, the Liver uptake ([1]; 60 min) was 2.47 ± 0.30 %ID/g, the Lung uptake ([1]; 60 min) was 0.54 ± 0.14 %ID/g and the Muscle uptake ([1]; 60 min) was 0.13 ± 0.01 %ID/g. The Pancreas uptake ([1]; 60 min) was 4.98 ± 0.24 %ID/g, the Skin uptake ([1]; 60 min) was 0.23 ± 0.04 %ID/g and the Spleen uptake ([1]; 60 min) was 0.83 ± 0.18 %ID/g. For the same compound, the Blood uptake ([1]; 120 min) was 0.12 ± 0.03 %ID/g, the Brain uptake ([1]; 120 min) was 0.35 ± 0.02 %ID/g and the Heart uptake ([1]; 120 min) was 0.22 ± 0.01 %ID/g. For the same compound, the Kidney uptake ([1]; 120 min) was 0.55 ± 0.06 %ID/g, the Liver uptake ([1]; 120 min) was 1.47 ± 0.13 %ID/g and the Lung uptake ([1]; 120 min) was 0.35 ± 0.03 %ID/g. The Muscle uptake ([1]; 120 min) was 0.10 ± 0.01 %ID/g, the Pancreas uptake ([1]; 120 min) was 2.76 ± 0.61 %ID/g and the Skin uptake ([1]; 120 min) was 0.16 ± 0.02 %ID/g. For the same compound, the Spleen uptake ([1]; 120 min) was 0.48 ± 0.04 %ID/g, the “Blood uptake, Control” value ([2]; no pretreatment) was 0.20 ± 0.02 %ID/g and the “Pancreas uptake, Control” value ([2]; no pretreatment) was 4.93 ± 0.49 %ID/g. For the same compound, the “Blood uptake, Pretreatment” value [2, 6] was 0.26 ± 0.04 %ID/g, the “Pancreas uptake, Pretreatment” value [2, 6] was 1.11 ± 0.07 %ID/g and the “Pancreas uptake, Control” value [3, 7] was 2.19 %ID/g. For the same compound, the “Pancreas uptake, Pretreatment” value [3, 8] was 0.32 %ID/g.
`COc1cc2c(cc1OCCC[18F])CCN1CC(CC(C)C)C(C3CO3)CC21` (stereo not drawn) [[^18F](+)4] [[^18F](+)-2-Oxiranyl-3-isobutyl-9-(3-fluoropropoxy)-10-methoxy-2,3,4,6,7, 11b-hexahydro-1H-pyrido[2,1-a]isoquinoline] gave a Blood uptake ([4]; 2 min, n=3) of 0.27 %ID/g, a Bone uptake ([4]; 2 min, n=3) of 0.29 %ID/g and a Brain uptake ([4]; 2 min, n=3) of 0.95 %ID/g. The Heart uptake ([4]; 2 min, n=3) was 0.48 %ID/g, the Kidney uptake ([4]; 2 min, n=3) was 4.60 %ID/g and the Liver uptake ([4]; 2 min, n=3) was 3.28 %ID/g. For the same compound, the Lung uptake ([4]; 2 min, n=3) was 0.79 %ID/g, the Muscle uptake ([4]; 2 min, n=3) was 1.00 %ID/g and the Pancreas uptake ([4]; 2 min, n=3) was 1.64 %ID/g. It also gave a Skin uptake ([4]; 2 min, n=3) of 0.21 %ID/g, a Spleen uptake ([4]; 2 min, n=3) of 1.36 %ID/g and a Blood uptake ([4]; 30 min, n=3) of 0.15 %ID/g. For the same compound, the Brain uptake ([4]; 30 min, n=3) was 0.30 %ID/g, the Heart uptake ([4]; 30 min, n=3) was 0.11 %ID/g and the Kidney uptake ([4]; 30 min, n=3) was 3.59 %ID/g. It also gave a Liver uptake ([4]; 30 min, n=3) of 1.02 %ID/g, a Lung uptake ([4]; 30 min, n=3) of 0.48 %ID/g and a Pancreas uptake ([4]; 30 min, n=3) of 1.96 %ID/g. For the same compound, the Skin uptake ([4]; 30 min, n=3) was 0.14 %ID/g, the Spleen uptake ([4]; 30 min, n=3) was 0.26 %ID/g and the Blood uptake ([4]; 60 min, n=7) was 0.10 %ID/g. For the same compound, the Bone uptake ([4]; 60 min, n=7) was 0.23 %ID/g, the Brain uptake ([4]; 60 min, n=7) was 0.32 %ID/g and the Heart uptake ([4]; 60 min, n=7) was 0.07 %ID/g. For the same compound, the Kidney uptake ([4]; 60 min, n=7) was 2.21 %ID/g, the Liver uptake ([4]; 60 min, n=7) was 0.67 %ID/g and the Lung uptake ([4]; 60 min, n=7) was 0.14 %ID/g. It also gave a Muscle uptake ([4]; 60 min, n=7) of 0.04 %ID/g, a Pancreas uptake ([4]; 60 min, n=7) of 2.68 %ID/g and a Skin uptake ([4]; 60 min, n=7) of 0.09 %ID/g. The Spleen uptake ([4]; 60 min, n=7) was 0.16 %ID/g, the Blood uptake ([4]; 120 min, n=7) was 0.04 %ID/g and the Bone uptake ([4]; 120 min, n=7) was 0.22 %ID/g. For the same compound, the Brain uptake ([4]; 120 min, n=7) was 0.24 %ID/g, the Heart uptake ([4]; 120 min, n=7) was 0.02 %ID/g and the Kidney uptake ([4]; 120 min, n=7) was 1.58 %ID/g. The Liver uptake ([4]; 120 min, n=7) was 0.54 %ID/g, the Lung uptake ([4]; 120 min, n=7) was 0.05 %ID/g and the Muscle uptake ([4]; 120 min, n=7) was 0.02 %ID/g. It also gave a Pancreas uptake ([4]; 120 min, n=7) of 1.33 %ID/g, a Skin uptake ([4]; 120 min, n=7) of 0.04 %ID/g and a Spleen uptake ([4]; 120 min, n=7) of 0.08 %ID/g. It also gave a Blood uptake ([4]; 240 min, n=4) of 0.02 %ID/g, a Bone uptake ([4]; 240 min, n=4) of 0.27 %ID/g and a Brain uptake ([4]; 240 min, n=4) of 0.28 %ID/g. It also gave a Heart uptake ([4]; 240 min, n=4) of 0.01 %ID/g, a Kidney uptake ([4]; 240 min, n=4) of 2.01 %ID/g and a Liver uptake ([4]; 240 min, n=4) of 0.54 %ID/g. It also gave a Lung uptake ([4]; 240 min, n=4) of 0.03 %ID/g, a Muscle uptake ([4]; 240 min, n=4) of 0.01 %ID/g and a Pancreas uptake ([4]; 240 min, n=4) of 0.81 %ID/g. The Skin uptake ([4]; 240 min, n=4) was 0.02 %ID/g, the Spleen uptake ([4]; 240 min, n=4) was 0.04 %ID/g and the “Time of peak uptake and retention in the pancreas” value [5] was “around 60 min”. For the same compound, the “Pancreas uptake, Pretreatment” value [2, 6] was 1.11 %ID/g, the “Pancreas uptake, Control” value [3, 7] was 2.19 ± 0.37 %ID/g and the “Blood uptake, Pretreatment” value [3, 8] was 0.06 ± 0.01 %ID/g. The “Pancreas uptake, Pretreatment” value [3, 8] was 0.32 ± 0.07 %ID/g.
In the case of `COc1cc2c(cc1OCCC[18F])CCN1CC(CC(C)C)C(C3CO3)CC21` (stereo not drawn) [[^18F](−)4] [[^18F](−)-2-Oxiranyl-3-isobutyl-9-(3-fluoropropoxy)-10-methoxy-2,3,4,6,7, 11b-hexahydro-1H-pyrido[2,1-a]isoquinoline], the “Displaceability of pancreas uptake” value ([3]; 30 min, iv pretreatment of (+)DTBZ 3.3 mg/kg 5 min prior) is reported as “non-displaceable”, the “Blood uptake, Control” value [3, 9] is reported as 0.07 ± 0.00 %ID/g and the “Pancreas uptake, Control” value [3, 9] is reported as 0.22 ± 0.02 %ID/g. For the same compound, the “Blood uptake, Pretreatment” value [3, 10] was 0.12 ± 0.03 %ID/g, the “Pancreas uptake, Pretreatment” value [3, 10] was 0.22 ± 0.04 %ID/g and the “Labeling of rat brain sections (in vitro autoradiography)” value (VMAT2) was “no specific binding in any brain region”.
